{"source": "patent US20260166045A1", "about": "“COMBINATION THERAPY COMPRISING GSPT1-DIRECTED MOLECULAR GLUE DEGRADERS AND PI3K/AKT/mTOR PATHWAY INHIBITORS” (Monte Rosa Therapeutics, Inc., priority 2022, published 2026)", "key": {"[1]": {"tested_on": "MCF7 xenografts", "assay": "MCF7 cell-derived xenograft (CDX) in vivo combination study", "design": "species or system BALB/c nude mice", "settings": "compound 1-1 10 mg/kg; for Δ TV ratio to vehicle group (A/C, B/C, (AB)/C): day 28, Clarke method; for Δ TV (delta tumor volume): p.o. qd for 28 days, average of four tumors", "method": "[…] (0.36 mg) pellets (Innovative Research of America Cat. No.: SE-121, pellet size: 3.0 mm) were implanted 2-3 days before cell inoculation.\n(§1) Compound 1-1 was formulated every day freshly as a solution in 5% DMSO/95% (30% w/v HPβCD in water). This formulation was also used as vehicle control. Everolimus was formulated as a suspension in 1% MC (400 cps), which was prepared every 3 days.\n(§2) Body weights were measured at the same time.\nAn approximation of drug interactions was made using the method described by Clarke (Clarke et al. 1997. Breast Cancer Res Treat. 46(2-3):255-78). This was applied to […] and can estimate interactions from limited data. In short, for compound A, B, or the combination AB (with control group C), antagonism is predicted when (AB)/C>(A/C)×(B/C), an additive effect is predicted when (AB)/C=(A/C)×(B/C), and synergistic interaction is predicted to occur when (AB)/C<(A/C)×(B/C). Calculations in Table 10B indicate that the interaction of everolimus and compound 1-1 in the MCF7 CDX model is synergistic.\n17β-Estradiol (0.36 mg) pellets (Innovative Research of America Cat. No.: SE-121, pellet size: 3.0 mm) were implanted 2-3 days before cell inoculation.\n(§3) Compound 1-1 was formulated every day freshly as a solution in 5% DMSO/95% (30% w/v HPβCD in water). This formulation was also used as vehicle control. Alpelisib was formulated as a solution in 20% captisol+80% water (pH adjusted to 4), which was prepared every week."}, "[2]": {"tested_on": "CAL51 xenografts", "assay": "CAL51 cell-derived xenograft (CDX) in vivo combination study", "design": "species or system SCID Beige mice", "settings": "compound 1-1 3 mg/kg; for antitumor effect vs vehicle (tumor volume): day 21, ANOVA with post hoc Tukey's test; for antitumor effect vs vehicle (tumor volume) / Δ TV ratio to vehicle group (A/C, B/C, (AB)/C): p.o. qd; for Δ TV ratio to vehicle group (A/C, B/C, (AB)/C): day 21, Clarke method; for Δ TV (delta tumor volume): p.o. qd for 21 days, average of four tumors", "method": "as §1, §2, §3"}}, "data": [{"smiles": "O=C1CCC(N2Cc3ccc(COC(=O)Nc4cc(OC(F)(F)F)ccc4F)cc3C2=O)C(=O)N1", "note": "(stereo not drawn) [Compound 1-1, [2-(2,6-dioxopiperidin-3-yl)-3-oxo-2,3-dihydro-1H-isoindol-5-yl]methyl N-[2-fluoro-5-(trifluoromethoxy)phenyl]carbamate]", "values": [{"measurement": "anti-tumor effect compared to vehicle", "setting": "[1]; day 28, ANOVA with post hoc Tukey's test, alpelisib 50 mg/kg, p.o. qd", "value": "significant anti-tumor effect"}, {"measurement": "antitumor effect vs vehicle (tumor volume)", "setting": "[1]; day 28, ANOVA with post hoc Tukey's test, everolimus 2 mg/kg, p.o. qd", "value": "statistically significant antitumor effects"}, {"measurement": "Δ TV ratio to vehicle group (A/C, B/C, (AB)/C)", "setting": "[1]; alpelisib 50 mg/kg, p.o. qd", "value": 0.35}, {"measurement": "Δ TV ratio to vehicle group (A/C, B/C, (AB)/C)", "setting": "[1]; everolimus 2 mg/kg, p.o. qd", "value": 0.35}, {"measurement": "Δ TV (delta tumor volume)", "setting": "[1]; day 28, alpelisib 50 mg/kg, combination 50 + 10 mg/kg", "value": 216, "unit": "mm^3"}, {"measurement": "Δ TV (delta tumor volume)", "setting": "[1]; day 28, everolimus 2 mg/kg, combination 2 + 10 mg/kg", "value": 216, "unit": "mm3"}, {"measurement": "antitumor effect vs vehicle (tumor volume)", "setting": "[2]; alpelisib 20 mg/kg", "value": "neither alpelisib nor compound 1-1 produced a statistically significant antitumor effect"}, {"measurement": "antitumor effect vs vehicle (tumor volume)", "setting": "[2]; everolimus 2 mg/kg", "value": "statistically significant antitumor effect"}, {"measurement": "Δ TV ratio to vehicle group (A/C, B/C, (AB)/C)", "setting": "[2]; alpelisib 20 mg/kg", "value": 0.38}, {"measurement": "Δ TV ratio to vehicle group (A/C, B/C, (AB)/C)", "setting": "[2]; everolimus 2 mg/kg", "value": 0.38}, {"measurement": "Δ TV (delta tumor volume)", "setting": "[2]; day 21, alpelisib 20 mg/kg, combination 20 + 3 mg/kg", "value": 215, "unit": "mm3"}, {"measurement": "Δ TV (delta tumor volume)", "setting": "[2]; day 21, everolimus 2 mg/kg, combination 2 + 3 mg/kg", "value": 215, "unit": "mm3"}]}]}
